From PubChem BioAssay (NCI)
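Interpolation was linear, between the two tested concentrations surrounding the appropriate level; five concentrations were tested over 48 hours in 96-well plates. The concentration for full growth arrest is given as TGI.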

Columns and labels:
Experiment in all cases: NCI anticancer screen, dose series, 48 h
[1] = system: HCC-2998 colon
[2] = system: SNB-19 CNS
[3] = system: HCT-15 colon
[4] = system: LOX IMVI melanoma
[5] = system: OVCAR-4 ovarian
[6] = system: HOP-92 NSCLC
[7] = system: MCF7 breast
[8] = system: RPMI-8226 leukemia
[9] = system: UACC-62 melanoma
[10] = system: A498 renal
[11] = system: SF-539 CNS
[12] = system: HCT-116 colon
[13] = system: SK-MEL-2 melanoma
[14] = system: EKVX NSCLC
[15] = system: OVCAR-8 ovarian
[16] = system: SF-295 CNS
[17] = system: COLO 205 colon
[18] = system: CAKI-1 renal
[19] = system: ACHN renal
[20] = system: DU-145 prostate

Measured: TGI

Cc1cc(N(CCOS(C)(=O)=O)CCOS(C)(=O)=O)ccc1C=O
22.9 µM: [14]
> 100 µM: [2] | [8] | [12] | [15] | [16]
71.8 µM: [3]
1.25 µM: [18]
32 µM: [7]
39 µM: [6]
24.6 µM: [1]
4.39 µM: [17]
45.3 µM: [5]
58.7 µM: [4]
2.88 µM: [11]
7.29 µM: [10]
72.9 µM: [13]
15.7 µM: [9]

COP(=O)(/C=C/c1cc(C(=O)OCc2ccccc2)n(S(=O)(=O)c2ccccc2)c1)OC
> 100 µM: [1] | [2] | [3] | [4] | [5] | [19] | [7] | [9] | [10] | [11] | [12] | [13] | [14] | [15] | [16] | [20] | [17] | [18]

CSc1nsc(-c2ccccc2)[s+]1
> 100 µM: [1] | [2] | [3] | [5] | [19] | [8] | [9] | [10] | [11] | [12] | [13] | [14] | [15] | [17] | [18]

N#Cc1c(-c2ccccc2)/c(=C\Nc2ccc(F)cc2)c(=O)n2c1nc1ccccc12
68.4 µM: [11]
38.5 µM: [8]
> 100 µM: [1] | [2] | [3] | [4] | [5] | [19] | [7] | [10] | [12] | [13] | [14] | [15] | [16] | [17]
39.9 µM: [18]

O=C(Nc1nccs1)c1c(O)nc2sccn2c1=O
> 10 µM: [1] | [2] | [3] | [4] | [5] | [19] | [7] | [8] | [9] | [10] | [11] | [12] | [13] | [14] | [15] | [16] | [20] | [17] | [18]

NS(=O)(=O)c1cc2c(cc1Cl)NC(CCC(=O)O)=NS2(=O)=O
> 100 µM: [2] | [3] | [4] | [5] | [6] | [19] | [7] | [8] | [9] | [10] | [11] | [12] | [13] | [14] | [15] | [16] | [20] | [17] | [18]

Cc1nc(N)c(N2CCN([N+](=O)[O-])CC2)c(=O)[nH]1
> 100 µM: [1] | [2] | [3] | [4] | [5] | [19] | [7] | [8] | [10] | [11] | [12] | [13] | [14] | [15] | [16] | [20] | [17]

O=C1c2ccccc2-c2c1c(-c1ccc(F)cc1)nc1ccc3ccccc3c21
> 100 µM: [1] | [2] | [3] | [4] | [5] | [19] | [7] | [8] | [9] | [10] | [11] | [12] | [13] | [14] | [15] | [16] | [20] | [17] | [18]

COc1cccc2c1OC1(C=C2)Oc2ccccc2C(=O)N1C (centres undefined)
> 100 µM: [2] | [3] | [5] | [19] | [7] | [8] | [9] | [12] | [13] | [14] | [20] | [17] | [18]
77.8 µM: [1]
97.9 µM: [16]
98.2 µM: [6]
57.4 µM: [10]
14.5 µM: [4]
54.4 µM: [15]

CSC(=S)N(C)C
> 100 µM: [2] | [3] | [4] | [6] | [7] | [8] | [9] | [10] | [11] | [12] | [13] | [14] | [15] | [16] | [20] | [17] | [18]

COc1cc(/C=C/C(=O)CC(=O)/C=C/c2ccc(OC(=O)CCCCC3CCSS3)c(OC)c2)ccc1OC(=O)CCCCC1CCSS1 (centres undefined)
> 100 µM: [2] | [3] | [4] | [5] | [19] | [7] | [8] | [9] | [11] | [12] | [13] | [14] | [15] | [16] | [20] | [17]

CCCC(=O)OC1CC(n2cc(F)c(=O)[nH]c2=O)OC1COP(=O)(OCC(Cl)(Cl)Cl)OCC(Cl)(Cl)Cl (centres undefined)
> 31.6 µM: [18]
> 96 µM: [19]
59 µM: [17]
3.34 µM: [1]
> 69.6 µM: [4]
> 51.1 µM: [12]
> 67.6 µM: [20]
16.8 µM: [16]
> 100 µM: [2] | [3] | [5] | [6] | [7] | [9] | [13] | [14] | [15]
86.4 µM: [8]

CCC1(CC)C(=O)NN(C(=O)c2ccccc2)C1=O
> 100 µM: [1] | [2] | [3] | [4] | [5] | [19] | [7] | [8] | [9] | [12] | [13] | [14] | [15] | [16] | [20] | [17] | [18]
